Reference: US20260258032A1, “TYROSINE KINASE 2 INHIBITORS AND USES THEREOF” (BIOGEN MA INC., priority 2022, published 2026)

What was measured:
JH2 domain of human Tyk2 = target: T1, JH2 domain of human Tyk2 (Homo sapiens, UniProt P29597); experiment: JH2 biochemical assay (TR-FRET probe displacement); format: binding; conditions: JH2 biochemical assay
T1 construct: 10×His-tagged TYK2 JH2 domain (amino acid 575-876)
Summary of the method: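 10×His-tagged human TYK2 JH2 (aa 575-876, 2 nM) incubated 60 min with 2 nM fluorescent probe, 0.1 nM Tb anti-His antibody and compound (10-point 3-fold series from […] top). TR-FRET 520/495 nm ratio, falling with probe displacement, normalized and fitted to a 4-parameter logistic for IC50.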

[1] = tested on: Tyk2 kinase activity on STAT4; experiment: pSTAT4 cell assay (MSD, NK92 cells); format: cell-based; conditions: compounds 1 hr, stimulated 15 minutes
Summary of the method: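 NK92, serum-starved; cpd 1 hr, 10-pt 4-fold from 10 μM; IL2 30 ng/mL 15 min; lyse; MSD with anti-STAT4 Abs; IC50 by 4-PL fit.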

[2] = tested on: JAK2 kinase activity on STAT5; experiment: pSTAT5 cell assay (MSD, TF1 cells, IL-3 stimulated); format: cell-based; conditions: Homo sapiens, TF-1, compounds 1 hour, 30 ng/mL IL-3 for 15 minutes
Experimental: Compounds of the disclosure were assessed for their ability to inhibit the JAK2 kinase activity on STAT5 utilizing an MSD-platform plate-based assay format. TF1 cells natively expressing STAT5 and JAK2 were serum-starved to reduce background phosphorylation levels, then cells were treated with compounds of disclosure for 1 hour with a 10-point four-fold dilution series starting at 10 μM. Cells were then stimulated with 30 ng/mL IL-3 for 15 minutes. Cells were then lysed and pSTAT5 levels were quantitated using an MSD plate-based assay with anti-STAT5 antibodies. The data were normalized and the percent activity versus log concentration of compound was fitted with a 4-parameter logistic model to generate a curve and an IC50 value.

[3] = tested on: JAK1 kinase activity on STAT3; experiment: pSTAT3 cell assay (MSD, TF1 cells, IL-6 stimulated); format: cell-based; conditions: Homo sapiens, TF-1, compounds 1 hour, 30 ng/mL IL-6 for 15 minutes
Experimental: The inhibitory potency of compounds of the disclosure against the JAK1 kinase activity on STAT3 was evaluated using an MSD-platform plate-based assay format. TF1 cells natively expressing STAT3 and JAK1 were serum-starved to reduce background phosphorylation levels, then cells were treated with compounds of the disclosure for 1 hour with a 10-point four-fold dilution series starting at 10 μM. Cells were then stimulated with 30 ng/mL interleukin 6 (IL-6) for 15 minutes. Cells were lysed and pSTAT3 levels were quantitated using an MSD plate-based assay with anti-STAT3 antibodies. The data were normalized and the percent activity versus log concentration of compound was fitted with a 4-parameter logistic model to generate IC50 curves.

T1 sequence (P29597 575-876): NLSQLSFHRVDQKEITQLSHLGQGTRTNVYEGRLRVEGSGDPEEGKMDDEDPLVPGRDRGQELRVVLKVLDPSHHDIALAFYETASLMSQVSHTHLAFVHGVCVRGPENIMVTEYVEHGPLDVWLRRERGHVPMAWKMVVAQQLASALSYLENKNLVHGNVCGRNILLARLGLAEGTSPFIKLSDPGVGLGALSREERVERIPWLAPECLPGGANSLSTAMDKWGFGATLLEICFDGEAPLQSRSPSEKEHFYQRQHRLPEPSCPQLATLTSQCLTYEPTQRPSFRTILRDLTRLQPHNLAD

Molecule `CC(=O)Nc1cc2c(cn1)C1(CCC1)CN2c1ccnc(C(C)(F)F)n1` [Example 41, N-(1′-(2-(1,1-difluoroethyl)pyrimidin-4-yl)-1′,2′-dihydrospiro[cyclobutane-1,3′-pyrrolo[3,2-c]pyridin]-6′-yl)acetamide] has an IC50 (JH2 domain of human Tyk2) of 0.01 to 0.1 µM, an IC50 [1] of at least 1 µM and an IC50 [2] of at least 1 µM. It also gave an IC50 [3] of at least 1 µM.

`CC(=O)Nc1cc2c(cn1)C1(CCC1)CN2c1cccc(C(C)(F)F)n1` [Example 42, N-(1′-(6-(1,1-difluoroethyl)pyridin-2-yl)-1′,2′-dihydrospiro[cyclobutane-1,3′-pyrrolo[3,2-c]pyridin]-6′-yl)acetamide] was tested, and the IC50 (JH2 domain of human Tyk2) was 0.01 to 0.1 µM, the IC50 [1] was at least 1 µM and the IC50 [2] was at least 1 µM. For the same molecule, the IC50 [3] was at least 1 µM.

With `CC(=O)Nc1cc2c(cn1)C1(CC1)CN2c1cc(-c2cnn(C)c2)nc(C(C)(F)F)n1` [Example 238, N-(1′-(2-(1,1-difluoroethyl)-6-(1-methyl-1H-pyrazol-4-yl)pyrimidin-4-yl)-1′,2′-dihydrospiro[cyclopropane-1,3′-pyrrolo[3,2-c]pyridin]-6′-yl)acetamide] the IC50 (JH2 domain of human Tyk2) was at most 0.01 µM, the IC50 [1] was at most 0.01 µM and the IC50 [2] was at least 1 µM. For the same molecule, the IC50 [3] was at least 1 µM.

`CC(=O)Nc1cc2c(cn1)C1(CC1)CN2c1nc(C)cc(C(C)(F)F)n1` [Example 83, N-(1′-(4-(1,1-difluoroethyl)-6-methylpyrimidin-2-yl)-1′,2′-dihydrospiro[cyclopropane-1,3′-pyrrolo[3,2-c]pyridin]-6′-yl)acetamide] was tested, and the IC50 (JH2 domain of human Tyk2) was at most 0.01 µM, the IC50 [1] was 0.1 to 1 µM and the IC50 [2] was at least 1 µM. For the same molecule, the IC50 [3] was at least 1 µM.
